Measurements from ChEMBL document CHEMBL3301361, “Experimental in vitro DMPK and physicochemical data on a set of publicly disclosed compounds”.

Experiments:
in vitro [1] = conditions: human
in vitro [2] = conditions: hepatocytes
physchem = conditions: octan-1-ol/water

Structure (SMILES) | microsomal CLint (in vitro [1]; microsomes) [µL/min/mg] | hepatocyte CLint (in vitro [2]) [µL/min/1e6 cells] | microsomal CLint (in vitro [1]; liver microsomes) [µL/min/mg] | logD (physchem; pH 7.4, LogD7.4) | logD (physchem; pH 7.4)
CC(C)c1ccc(NC(=O)Cn2cnc3c2c(=O)n(C)c(=O)n3C)cc1 | 18.2 | 16.6 | – | – | –
Oc1nc2c(O)ccc(CCNCCOCCCOCCc3ccccc3)c2s1 | – | > 150 | 56 | – | –
CN(CCc1ccc(O)c2[nH]c(=O)sc12)CCN(C)C(=O)CCOCCc1ccccc1 | – | > 150 | > 150 | – | –
O=C(Nc1ncc(F)s1)C(CC1CCOCC1)c1ccc(S(=O)(=O)C2CC2)cc1 (configuration not stated) | – | 5.5 | 33.1 | 3.3 | –
O=C1NC(=O)/C(=C/c2ccc3c(c2)OC(F)(F)O3)S1 | – | 4.17 | 19.5 | 2.8 | –
CCc1c(C)nc(SCC(=O)Nc2nc(-c3ccc(OC)cc3)cs2)nc1O | – | 66.1 | 66.1 | 3.78 | –
c1ccc(Nc2[nH]nnc2-c2ccccc2)cc1 | – | 111 | 119 | 3.37 | –
O=C(NCc1ccccc1)c1cc(-c2ccco2)on1 | – | 138 | 70.8 | – | –
CCn1c(SCC(=O)Nc2cc(C)on2)nnc1-c1cccnc1 | 7.76 | 75.9 | – | – | –
Cc1ccc(-c2nnc(SCC(=O)N3CCN(c4ccccc4)CC3)o2)cc1 | > 150 | > 150 | – | – | –
Cc1ccccc1NC(=O)CCS(=O)(=O)c1ccc(Br)s1 | – | > 150 | 46.8 | 2.7 | –
c1csc(Cn2nnnc2CN2CCN(c3nc4ccccc4s3)CC2)c1 | – | > 150 | 99 | 3.65 | –
CCCCn1c(SCC(=O)Nc2cc(C)on2)nnc1-c1ccco1 | > 150 | > 150 | – | – | –
O=C(c1cccc(Cl)c1Cl)N1CCN(c2ccccn2)CC1 | – | > 150 | > 150 | – | –
O=C(C1CCN(c2nnc(-n3cccc3)s2)CC1)N1CCc2ccccc2C1 | – | 46.8 | 83.2 | – | 3.7
CCOC(=O)c1c(-c2ccccc2)nc2cc(C)ccn12 | > 150 | 148 | – | – | 3.8
O=C(c1csc2c1CCCC2)N1CCCCC1 | 117 | > 150 | – | 3.2 | –
CCOC(=O)CN(c1ccccc1C)S(=O)(=O)c1ccc(Cl)cc1 | – | > 150 | 94 | – | –

Structure (SMILES) | microsomal CLint (in vitro [1]; microsomes) [µL/min/mg] | hepatocyte CLint (in vitro [2]) [µL/min/1e6 cells] | microsomal CLint (in vitro [1]; liver microsomes) [µL/min/mg] | logD (physchem; pH 7.4, LogD7.4) | logD (physchem; pH 7.4)
COc1ccc(CNC(=O)CSc2nc3cccnc3s2)cc1 | > 150 | > 150 | – | 2.5 | –
Cc1cccc(NC(=O)Nc2cccc3ccccc23)c1 | – | 91.2 | 70.8 | – | –
O=C(O)CCc1ccc(OCc2cccc(Oc3ccccc3)c2)cc1 | 4.9 | 97.7 | – | 2.47 | –
CS(=O)(=O)c1ccc(-c2cnc(N)c(C(=O)Nc3ccccc3)n2)cc1 | 4.17 | 19.1 | – | – | –
CCOc1ccc2oc(C(=O)NC(CCSC)c3nc4ncccc4[nH]3)c(C)c2c1 (configuration not stated) | – | 46 | > 150 | – | –
COc1ccc(C(=O)NCc2cn(-c3cc(C)nc4ccc(OC)cc34)nn2)cc1 | 64.6 | 13.8 | – | 3.5 | –
O=c1[nH]c2c(O)ccc([C@@H](O)CNCCSCCCOCCc3ccccc3)c2s1 | 75 | > 150 | – | 2.54 | –
CC(C)CNc1nc(N2CCN(CC3CCCOC3)CC2)ncc1C(=O)NCc1ccccc1 (configuration not stated) | – | 89.1 | 95.5 | – | –
CN(CC(=O)N(Cc1ccc(C2CCCCC2)cc1)c1ccc(C(=O)O)c(O)c1)S(=O)(=O)c1c(F)c(F)c(F)c(F)c1F | 129 | 74.1 | – | – | –
Cc1ccc(NC(=O)c2cccc(N3CCOCC3)c2)cc1NC(=O)c1ccc(OCc2cscn2)cc1 | 23 | 20 | – | – | –
O=c1[nH]c2c(O)ccc([C@@H](O)CNCCc3cccc(CNCc4ccccc4Cl)c3)c2s1 | – | 60 | 47 | 1.85 | –
O=c1[nH]c2c(O)ccc([C@@H](O)CNCCOc3cccc(CNCCc4ccccc4F)c3)c2s1 | 14 | 23 | – | 1.86 | –
O=c1[nH]c2c(O)ccc([C@@H](O)CNCCc3cccc(CN4CCC(c5ccccc5)CC4)c3)c2s1 | 27 | 29 | – | 1.99 | –
CC(=O)c1ncccc1NC(=O)[C@H]1CC[C@H](N2C(=O)[C@@H]3[C@@H]4CC[C@@H](C4)[C@@H]3C2=O)CC1 | – | > 150 | 16.6 | 3.01 | –
O=c1c2c3n(c(=O)cc2[nH]n1-c1ccccc1Cl)CCCN(Cc1ccccc1)C3 | 32.4 | < 3 | – | – | –
N#Cc1ccc(C(=O)Nc2ccc(-n3ccnc3)nc2)cc1 | 6.31 | 20.4 | – | – | –
Nc1ccc(-c2ccccc2Cl)cc1 | 39.8 | 123 | – | – | –
